Measured values from PubChem BioAssay (NCI).
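A five-concentration, 48-hour dose response in 96-well plates underlies each endpoint, interpolated linearly between surrounding concentrations. GI50 marks 50% less growth. TGI is the concentration that stops growth completely.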

Legend:
Test in all cases: NCI-60 cell line screen, 48 h
SK-MEL-28 melanoma = test system: SK-MEL-28 melanoma
UACC-62 melanoma = test system: UACC-62 melanoma
NCI-H460 lung = test system: NCI-H460 lung
SW-620 colon = test system: SW-620 colon
MALME-3M melanoma = test system: MALME-3M melanoma
U251 CNS = test system: U251 CNS
HT29 colon = test system: HT29 colon
NCI-H522 lung = test system: NCI-H522 lung
SF-268 CNS = test system: SF-268 CNS
CCRF-CEM leukemia = test system: CCRF-CEM leukemia

Structure (SMILES)	GI50 (SK-MEL-28 melanoma) [µM]	TGI (SK-MEL-28 melanoma) [µM]	GI50 (UACC-62 melanoma) [µM]	TGI (UACC-62 melanoma) [µM]	GI50 (NCI-H460 lung) [µM]	TGI (NCI-H460 lung) [µM]	GI50 (SW-620 colon) [µM]	TGI (SW-620 colon) [µM]	GI50 (MALME-3M melanoma) [µM]	TGI (MALME-3M melanoma) [µM]	GI50 (U251 CNS) [µM]	TGI (U251 CNS) [µM]	GI50 (HT29 colon) [µM]	TGI (HT29 colon) [µM]	GI50 (NCI-H522 lung) [µM]	TGI (NCI-H522 lung) [µM]	GI50 (SF-268 CNS) [µM]	TGI (SF-268 CNS) [µM]	GI50 (CCRF-CEM leukemia) [µM]	TGI (CCRF-CEM leukemia) [µM]
O=C(COc1cccc(/C=C2\COc3ccccc3C2=O)c1)Nc1nccs1	2.42	5.44	1.69	3.76	6.92	31.6	1.97	3.98	1.82	3.49	1.73	3.11	1.94	3.72	1.52	3.19	1.95	3.69	1.63	4.91
Nc1ccc2c(c1)C(=O)c1c(F)cccc1-2		> 100		> 100		> 100		> 100		> 100		> 100		> 100		> 100		> 100		> 100
Cn1c(CCC#N)nc2ccc(Br)cc2c1=O		> 100		> 100		> 100		> 100		> 100		> 100		> 100		> 100		> 100		> 100
CC1(C)N=C(N)N=C(N)N1c1ccc(F)c(C(F)(F)F)c1	15.9	> 100	2.25	> 100	0.42	> 100	0.233	> 100	26.7	> 100	0.503	> 100	0.363	> 100	3.78	> 100	0.158	> 100	0.532	> 100
Cn1c(COC(=O)N2CCCCC2)nc2c(N3CCOCC3)nc(-c3ccccc3)nc21	1.52	2.86	1.27	2.54	1.58	3.27	0.235	0.539	1.39	2.72	1.37	2.81	0.417	1.59	0.406	1.76	1.33	2.71	0.307	1.48
COc1ccc2[nH]cc(-c3nc(-c4cn(C)c5ccncc45)cs3)c2c1	1.79	3.22	18.5	37.5	1.97	3.67	1.95	3.81	2.11	3.65	1.91	3.42	1.53	3.33	1.74	3.52	1.91	3.61	2.33	6.25
CCC[C@H](N[C@@H]1CCc2cc(F)cc(F)c2C1)C(=O)Nc1cn(C(C)(C)CNCC(C)(C)C)cn1	15.1	33.9	15.6	34.1	19.5	53.8	25	> 100	13.4	28.2	15.7	58.7	11.7	30	15.7	56.1	20.4	> 100	14.7	> 63.6
C#C[C@]1(O)CC[C@H]2[C@@H]3CC=C4c5sc(N=C(N)N)nc5CC[C@]4(C)[C@H]3CC[C@@]21C	0.4	1.61	0.248	0.657	1.05	2.5	0.541	1.96	0.338	1.19	0.388	1.85	0.361	1.69	1.63	3.67	0.959	2.75	0.365	3.43
CCOC(=O)/N=C(\N)SCc1ccccc1		> 100		> 100		> 100		> 100		> 100		> 100		> 100		> 100		> 100		> 100
O=c1/c(=C/c2ccc(Cl)cc2Cl)sc2nc3ccccc3n12		> 100		> 100		> 100		> 100		> 100		> 100		> 100		> 100		> 100		> 100
C(=C1c2ccccc2-c2ccccc21)c1ccccn1	8.12	73	5.8	> 100	5.87	23	4.03	49.4	3.61	27	6.22	70.9	3.56	16.7	11.1	51.1	12.4	57.7	7.8	46
ClCCN(CCCl)c1ccc(-n2cnc3c(Cl)ncnc32)cc1	1.94	3.64	1.81	3.35	2.14	4.88	1.76	3.29	2.17	4.41	2.91	9.1	2.07	4.15	3.84	14.9	1.81	3.73	3.05	> 100
CC(C)(C)c1ccc([I+]c2ccc(C(C)(C)C)cc2)cc1	1.11	3.14	0.69	2.31	1.66	4.16	1.56	10.7	0.545	2.01	1.47	3.59	1.34	4.78	1.39	4.8	1.93	7.53	1.17	9.14
O=C1Nc2ccccc2C1Cc1ccccc1 (stereo not given)		> 100		> 100		> 100		> 100		> 100		> 100		> 100		> 100		> 100		> 100
COC(CCP(=O)(c1ccccc1)c1ccccc1)(C(=O)c1ccccc1)c1ccccc1 (stereo not given)	6.95	19.9	2.39	15.1	3.43	14	3.86	15.7	2.78	15.4	5.5	18.4	4.65	19.1	4.71	26	10.2	21.9	2.27	42
CC(ONC(=O)c1cc(C(F)(F)F)cc(C(F)(F)F)c1)C(=O)Nc1ccc(Cl)cc1 (stereo not given)	5.4	37.4	3.98	14.1	3.5	15	5.64	23.7	3.83	13.6	4.61	> 50.5	5.92	27.2	4.14	22.4	5.2	> 67.9	1.09	5.38
O=c1c2ccc3cccc4c(=O)cc(c5ccccc15)-c2c34		> 100		> 100		> 100		> 100		> 100		> 100		> 100		> 100		> 100		> 100
COc1cc(-c2[nH]ccc2Cl)oc1C1=C2N=C3C=C2C(C(C)C)C1CCCCCCCC3 (stereo not given)		2.84		1.91		1.53		1.5		2.49		1.89		1.11		1.58		4.1		1.74
C=C=C(C)[Si](C)(C)C		> 100		> 100		> 100		> 100		> 100		> 100		> 100		> 100		> 100		> 100
COc1ccc(C(O)CNC(=O)c2ccccc2)cc1 (stereo not given)		> 100		> 100		> 100		> 100		> 100		> 100		> 100		> 100		> 100		> 100
